The results in this text go back to US7504508B2, “PGD2 receptor antagonists for the treatment of inflammatory diseases” (Millennium Pharmaceuticals, Inc., priority 2002, dated 2009).

The term Ki denotes the dissociation constant of the complex between target and ligand, obtained from inhibition or displacement. A high value points to lower affinity.

Molecules are shown by their SMILES.

The assay addresses T1, cloned human CRTH2 receptor (Homo sapiens, UniProt Q9Y5Y4).
T1 construct: purchased Biosignal; host or cells: HEK-293 cells stably expressing human CRTH2 and G-alpha-16 (membranes)
T1 sequence (Q9Y5Y4 1-395): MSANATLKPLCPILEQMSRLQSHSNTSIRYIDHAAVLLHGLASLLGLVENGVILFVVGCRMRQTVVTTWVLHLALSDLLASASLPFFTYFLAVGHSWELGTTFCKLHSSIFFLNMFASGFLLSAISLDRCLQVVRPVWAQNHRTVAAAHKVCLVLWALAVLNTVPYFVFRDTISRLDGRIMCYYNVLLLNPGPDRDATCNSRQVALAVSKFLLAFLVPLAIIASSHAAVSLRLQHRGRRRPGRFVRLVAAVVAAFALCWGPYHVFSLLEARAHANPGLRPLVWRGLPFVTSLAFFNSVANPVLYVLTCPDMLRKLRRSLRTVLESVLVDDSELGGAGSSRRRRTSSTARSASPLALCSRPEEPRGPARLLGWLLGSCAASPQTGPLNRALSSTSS
The assay can be described thus: Radioligand membrane binding assay: inhibition of [3H] PGD2 binding to CRTH2 (Scintillation Proximity Assay). As to conditions: inhibition of [3H] PGD2 binding to membranes of HEK-293 cells stably expressing human CRTH2; SPA; 10 point curve from 10 μM; room temperature, approximately 2 hours. How it is done:
This radioligand membrane binding assay evaluates the ability of compounds to inhibit [^3H] Prostaglandin D2 (PGD2) binding to the cloned human CRTH2 receptor stably expressed in HEK-293 cells (expressing human CRTh2 receptor and α subunit or the heteronimeric G protein 16 were prepared by Biosignal Company) using Scintillation Proximity Assay.
A binding buffer containing 50 mM Tris-HCl (pH 7.5), 5 mM MgCl2 and 1 mM EDTA was prepared immediately prior to performing the assay. A bead/membrane solution at twice the final assay concentration comprising membranes (membranes bought from Biosignal) from the HEK-293 cells cloned to express CRTH2 receptor bound to and [3H] PGD2 at twotimes the final assay concentration were prepared and stored on ice before adding to wells. Cold PGD2 at twenty times the final assay concentration was prepared and stored on ice before adding to wells defining non-specific binding (NSB) corning plates #3653 were used for this assay.
10 mM stock concentrations of compounds in 100% DMSO were prepared and stored at room temperature. A 10 point concentration response curve was then constructed for each compound, starting at 10 μM (final assay concentration). The compounds were prepared at 40 times final assay concentrations with nine consequent-3-fold dilutions.
0.1 μl of each concentration of compound were added to the appropriate well of the 384 plate and 2 μl of cold PGD2 was added into the wells defining NSB. 20 μl of [^3H] PGD2 and then 20 μl of 2× of bead/membrane solution were then added to each well.
The plates were allowed to incubate at room temperature for approximately 2 hours and then counted on Packard Topcount using SPA tritium protocol for 1 minute/well.
The percent inhibition of PGD2 binding (PGD2 used at the KD value or lower) to the HEK-293 cell membranes was determined, the assay was always run as duplicate for n=1 for a total of n=2.
A general note: Scintillation proximity formats need no separation of bound from free tracer.

`CCC(=O)N(c1ccc(Cl)cc1)[C@@H]1C[C@H](CO)N(C(=O)c2ccc(F)cc2)c2ccccc21` (racemic) [Compound B-105, (±)-Cis-N-(4-chloro-phenyl)-N-[1-(4-fluoro-benzoyl)-2-hydroxymethyl-1,2,3,4-tetrahydro-quinolin-4-yl]-propionamide] registered a Ki of less than 10 µM.
The molecule `CCC(=O)N(c1ccc(Cl)cc1)[C@@H]1C[C@H](CCc2ccccc2)N(C(=O)c2ccc(F)cc2)c2ccccc21` (racemic) [Compound B-97, (±)-Cis-N-(4-chloro-phenyl)-N-[1-(4-fluoro-benzoyl)-2-phenethyl-1,2,3,4-tetrahydro-quinolin-4-yl]-propionamide] registered a Ki of less than 10 µM.
Under `CC(=O)N(c1ccccc1)[C@H]1C[C@@H](C)N(C(=O)c2ccc(C(C)(C)C)cc2)c2ccccc21` [Compound A-8, (2R,4S)-cis-N-[1-(4-tert-butyl-benzoyl)-2-methyl-1,2,3,4-tetrahydro-quinolin-4-yl]-N-phenyl-acetamide] stands less than 60 µM.
Under `COc1ccc(C(=O)N2c3ccccc3[C@@H](N(C(C)=O)c3ccc(Cl)cc3)C[C@H]2C)cc1` [Compound B-34, (2R,4S)-cis-N-(4-Chloro-phenyl)-N-[1-(4-methoxy-benzoyl)-2-methyl-1,2,3,4-tetrahydro-quinolin-4-yl]-acetamide] stands less than 10 µM.
To `CCOC(=O)C(C)(C)Oc1ccc2c(c1)[C@H](N(C(=O)CC)c1ccc(Cl)cc1)C[C@H](C)N2C(=O)c1ccc(F)cc1` (racemic) [Compound B-64, (±)-Cis-2-[4-[(4-chloro-phenyl)-propionyl-amino]-1-(4-fluoro-benzoyl)-2-methyl-1,2,3,4-tetrahydro-quinolin-6-yloxy]-2-methyl-propionic acid ethyl ester] belongs less than 10 µM.
In the case of `Cc1ccc(C(=O)N2c3ccccc3[C@@H](N(C(=O)C(C)C)c3ccc(Cl)cc3)C[C@H]2C)s1` [Compound B-11, (2R,4S)-cis-N-(4-Chloro-phenyl)-N-[2-methyl-1-(5-methyl-thiophene-2-carbonyl)-1,2,3,4-tetrahydro-quinolin-4-yl]-isobutyramide], the Ki is less than 10 µM.
As to `COc1cccc(C(=O)N2c3c(C)cccc3[C@H](N(C(C)=O)c3ccc(Cl)cc3)C[C@@H]2C)c1` (racemic) [Compound B-74, (±)-Cis-N-(4-chloro-phenyl)-N-[1-(3-methoxy-benzoyl)-2,8-dimethyl-1,2,3,4-tetrahydro-quinolin-4-yl]-acetamide], the Ki is less than 10 µM.
`CCC(=O)N(c1ccc(Cl)cc1)[C@@H]1C[C@H](C)N(C(=O)c2ccc(F)cc2)c2ccc(OC)cc21` (racemic) [Compound B-59, (±)-Cis-N-(4-chloro-phenyl)-N-[1-(4-fluoro-benzoyl)-6-methoxy-2-methyl-1,2,3,4-tetrahydro-quinolin-4-yl]-propionamide] registered an inhibition constant Ki of less than 10 µM.
Molecule `CC(=O)N(c1ccc(Cl)cc1)[C@H]1C[C@@H](C)N(C(=O)c2ccc(C)s2)c2ccccc21` [Compound B-28, (2R,4S)-cis-N-(4-Chloro-phenyl)-N-[2-methyl-1-(5-methyl-thiophene-2-carbonyl)-1,2,3,4-tetrahydro-quinolin-4-yl]-acetamide] showed a Ki of less than 10 µM.
Take `CC(=O)N(c1ccc(Cl)cc1)[C@@H]1C[C@H](C)N(C(=O)c2ccc(/C=C/C(=O)O)cc2)c2ccccc21` [Compound C-33, (2S,4R)-3-(4-{4-[Acetyl-(4-chloro-phenyl)-amino]-2-methyl-3,4-dihydro-2H-quinoline-1-carbonyl}-phenyl)-acrylic acid]: the Ki was less than 10 µM.
On to `CCC(=O)N(c1ccccc1)[C@H]1C[C@@H](C)N(C(=O)c2ccc(C3CCN(C(C)=O)CC3)cc2)c2ccccc21` [Compound A-51, (2R,4S)-cis-N-{1-[4-(1-acetyl-piperidin-4-yl)-benzoyl]-2-methyl-1,2,3,4-tetrahydro-quinolin-4-yl}-N-phenyl-propionamide], for which the Ki was less than 10 µM.
Molecule `CC(=O)N(c1ccccc1)[C@@H]1C[C@H](C)N(C(=O)c2c(F)cc(F)cc2F)c2ccccc21` (racemic) [Compound A-24, (±)-Cis-N-[2-methyl-1-(2,4,6-trifluoro-benzoyl)-1,2,3,4-tetrahydro-quinolin-4-yl]-N-phenyl-acetamide] returned a Ki of less than 10 µM.
For `COc1cccc(C(=O)N2c3ccccc3[C@@H](N(C(C)=O)c3ccc(Cl)cc3)C[C@H]2C)c1` [Compound B-9, (2R,4S)-cis-N-(4-chloro-phenyl)-N-[1-(3-methoxy-benzoyl)-2-methyl-1,2,3,4-tetrahydro-quinolin-4-yl]-acetamide], the Ki was less than 10 µM.
Under `CCC(=O)N(c1ccc(Cl)cc1)[C@@H]1C[C@H](C(F)(F)F)N(C(=O)c2cccc(OC)c2)c2ccc(OC)cc21` (racemic) [Compound B-110, (±)-Cis-N-(4-chloro-phenyl)-N-[6-methoxy-1-(3-methoxy-benzoyl)-2-trifluoromethyl-1,2,3,4-tetrahydro-quinolin-4-yl]-propionamide] stands less than 10 µM; under `CCC(=O)N(c1ccc(Cl)cc1)[C@@H]1C[C@H](C(F)(F)F)N(C(=O)c2ccco2)c2ccc(OC)cc21` (racemic) [Compound B-111, (±)-Cis-N-(4-chloro-phenyl)-N-[1-(furan-2-carbonyl)-6-methoxy-2-trifluoromethyl-1,2,3,4-tetrahydro-quinolin-4-yl]-propionamide], less than 10 µM; under `CCC(=O)N(c1ccccc1)[C@@H]1C[C@H](C)N(C(=O)c2cccc(Cl)c2)c2ccccc21` (racemic) [Compound A-35, (±)-Cis-N-[1-(3-chloro-benzoyl)-2-methyl-1,2,3,4-tetrahydro-quinolin-4-yl]-N-phenyl-propionamide], less than 10 µM.
To `COc1ccc(C(=O)N2c3cc(C)ccc3[C@@H](N(C(C)=O)c3ccc(Cl)cc3)C[C@H]2C)cc1` [Compound B-58, (2R,4S)-cis-N-(4-chloro-phenyl)-N-[1-(4-methoxy-benzoyl)-2,7-dimethyl-1,2,3,4-tetrahydro-quinolin-4-yl]-acetamide] belongs less than 10 µM; to `CCC(=O)N(c1ccc(Cl)cc1)[C@@H]1C[C@H](C(F)(F)F)N(C(=O)c2ccc(F)cc2)c2ccc(OC)cc21` (racemic) [Compound B-109, (±)-Cis-N-(4-chloro-phenyl)-N-[1-(4-fluoro-benzoyl)-6-methoxy-2-trifluoromethyl-1,2,3,4-tetrahydro-quinolin-4-yl]-propionamide], less than 10 µM; to `CC(=O)N(c1ccc(Cl)cc1)[C@H]1C[C@@H](C)N(C(=O)c2cccs2)c2ccccc21` [Compound B-7, (2R,4S)-cis-N-(4-chloro-phenyl)-N-[2-methyl-1-(thiophene-2-carbonyl)-1,2,3,4-tetrahydro-quinolin-4-yl]-acetamide], less than 10 µM.
`CCC(=O)N(c1ccc(Cl)cc1)C1CC(C)N(C(=O)c2ccc(F)cc2)c2ccc(/C=C/C(=O)O)cc21` (racemic) [Compound B-73, (±)-Cis-3-[4-[(4-chloro-phenyl)-propionyl-amino]-1-(4-fluoro-benzoyl)-2-methyl-1,2,3,4-tetrahydro-quinolin-6-yl]-acrylic acid] came in with a Ki of less than 10 µM.
Under `CCC(=O)N(c1ccc(Cl)cc1)[C@@H]1C[C@H](C)N(C(=O)c2ccc(F)cc2)c2ccc(N3CCOCC3)cc21` (racemic) [Compound B-70, (±)-Cis-N-(4-chloro-phenyl)-N-[1-(4-fluoro-benzoyl)-2-methyl-6-morpholin-4-yl-1,2,3,4-tetrahydro-quinolin-4-yl]-propionamide] stands less than 10 µM.
As to `CC(=O)N(c1ccc(Oc2ccccc2)cc1)[C@@H]1C[C@H](C)N(C(=O)c2ccc(F)cc2)c2ccccc21` (racemic) [Compound B-51, (±)-Cis-N-[1-(4-fluoro-benzoyl)-2-methyl-1,2,3,4-tetrahydro-quinolin-4-yl]-N-(4-phenoxy-phenyl)-acetamide], the Ki is less than 10 µM.
To `CCOC(=O)[C@H]1C[C@@H](N(C(C)=O)c2ccccc2)c2ccccc2N1C(=O)c1ccc(F)cc1` (racemic) [Compound B-101, (±)-Cis-4-(acetyl-phenyl-amino)-1-(4-fluoro-benzoyl)-1,2,3,4-tetrahydro-quinoline-2-carboxylic acid ethyl ester] belongs less than 10 µM.
